The numbers were not newly measured in patent US20240358731A1, “SUMO PATHWAY AS AN OXYGEN SENSOR RELEVANT TO THE PATHOPHYSIOLOGY OF PULMONARY ARTERY HYPERTENSION AND CARDIAC ARRHYTHMIA” (Northeastern University, priority 2023, published 2024), which cites them from elsewhere.

Structures are written as SMILES. Non-standard residues stand in square brackets, D forms with d. Residues, ends and D or L forms follow the SMILES beside them. ξ: configuration not given here. *: point of attachment. X2 = O=C(CN*)COC(=O)c1c2ccccc2cc2ccccc12; X1 = O=C(Cc1ccc(O)c([N+](=O)[O-])c1)*; Thr(3ξ) = CC(O)[C@H](N)C(=O)O

The target in the first series is T1, SUMO activating enzyme (SAE) (Homo sapiens, UniProt Q9UBE0+Q9UBT2).
T1 sequence (Q9UBE0 1-346): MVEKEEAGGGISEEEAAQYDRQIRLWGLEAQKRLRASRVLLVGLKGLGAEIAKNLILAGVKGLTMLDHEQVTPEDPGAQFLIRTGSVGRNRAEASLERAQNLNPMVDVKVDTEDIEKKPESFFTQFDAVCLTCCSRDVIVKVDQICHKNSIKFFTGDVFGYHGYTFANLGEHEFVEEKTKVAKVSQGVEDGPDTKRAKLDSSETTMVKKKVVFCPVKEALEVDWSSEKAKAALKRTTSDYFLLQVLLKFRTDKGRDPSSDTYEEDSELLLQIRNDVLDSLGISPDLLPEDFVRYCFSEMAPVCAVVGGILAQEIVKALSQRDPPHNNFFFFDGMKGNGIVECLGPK
T1 sequence (Q9UBT2 1-640): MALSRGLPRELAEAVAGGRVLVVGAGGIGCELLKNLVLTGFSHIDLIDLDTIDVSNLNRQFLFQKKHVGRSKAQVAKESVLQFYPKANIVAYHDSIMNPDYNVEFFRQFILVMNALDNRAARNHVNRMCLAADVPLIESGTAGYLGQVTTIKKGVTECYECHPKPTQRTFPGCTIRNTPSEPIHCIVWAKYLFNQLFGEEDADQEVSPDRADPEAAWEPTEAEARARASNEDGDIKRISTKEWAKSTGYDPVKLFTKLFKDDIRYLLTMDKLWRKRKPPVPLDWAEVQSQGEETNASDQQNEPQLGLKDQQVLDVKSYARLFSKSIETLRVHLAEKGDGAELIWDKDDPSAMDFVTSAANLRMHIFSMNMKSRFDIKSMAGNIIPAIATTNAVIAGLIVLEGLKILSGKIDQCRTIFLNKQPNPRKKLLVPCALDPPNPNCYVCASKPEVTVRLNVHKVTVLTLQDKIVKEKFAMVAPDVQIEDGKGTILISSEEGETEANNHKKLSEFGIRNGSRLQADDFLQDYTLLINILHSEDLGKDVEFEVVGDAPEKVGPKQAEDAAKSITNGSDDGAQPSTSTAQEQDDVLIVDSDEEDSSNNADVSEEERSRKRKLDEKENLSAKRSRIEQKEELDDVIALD
The following applies: cited from earlier work.
In the case of `CCCCn1c(NS(=O)(=O)c2ccccc2)c(S(=O)(=O)c2ccc(C)cc2)c2nc3ccccc3nc21` [Compound 15], the “SAE / SUMO E1 inhibition” value is on record as “most potent”. As for `NS(=O)(=O)OC[C@H]1C[C@@H](Nc2ncncc2C(=O)c2ccn(Cc3cccc(Br)c3)n2)C[C@@H]1O` [ML-792], the “SAE / SUMO E1 inhibition” value is “selective SAE inhibitor”. Take `C=CC[C@@H](Nc1ccccc1)C12C=CC(O1)C(C(=O)OC)=C2C(=O)OC` (stereo partly shown) [CID9549553]: the “SAE / SUMO E1 inhibition” value is “covalently targets an allosteric binding pocket of SUMO E1”. With `O=C(Oc1cc(C(=O)O[C@H]2O[C@@H](OC(=O)c3cc(O)c(O)c(OC(=O)c4cc(O)c(O)c(O)c4)c3)[C@H](OC(=O)c3cc(O)c(O)c(OC(=O)c4cc(O)c(O)c(O)c4)c3)[C@@H](OC(=O)c3cc(O)c(O)c(OC(=O)c4cc(O)c(O)c(O)c4)c3)[C@@H]2OC(=O)c2cc(O)c(O)c(OC(=O)c3cc(O)c(O)c(O)c3)c2)cc(O)c1O)c1cc(O)c(O)c(O)c1` [Davidiin], the “formation of the E1-SUMO complex” value is recorded as “blocks the formation of the E1-SUMO complex”. Turning to `COc1ccc(-c2nnc(Nc3nc4c(OC)cccc4s3)o2)cc1` [Compound N106], the SUMO-E1 activation entry is listed as “capable of increasing SUMOylation through the activation of SUMO-E1”.

Consider `COc1ccc(NC(=O)Nc2ccc(Oc3ncnc4cc(Cl)ccc34)nc2)cc1OC1CCCC1` [Compound 10], for which the “formation of the E1-SUMO complex” value is “prevents formation of the E1-SUMO complex”.

The next series concerns SUMOylation. The following applies: cited from earlier work.
As to `CC1CC2=C(O1)c1ccccc1C(=O)C2=O` (stereo not shown) [33-DINOR-dunnione], the SUMOylation inhibition result is “potent SUMOylation inhibitors”. For the compound `CCc1cc(=O)[nH]c(-n2nc(-c3ccccc3)cc2NC(=O)Nc2ccc(C(C)(C)C)cc2)n1` [Pyrazole urea], the SUMOylation inhibition entry was “potent molecules capable of inhibiting SUMOylation in vitro”. As for `COc1cc(NC(=O)Nc2nc(-c3nc4ccccc4s3)cs2)cc(OC)c1OC` [thiazole urea], the SUMOylation inhibition entry is on record as “potent molecules capable of inhibiting SUMOylation in vitro”.

For `CC1(C)CCC2=C(O1)c1ccccc1C(=O)C2=O` [β-lapachone], the SUMOylation inhibition result is “potent SUMOylation inhibitors”. As to `COC(=O)C1=C(C(=O)OC)C2([C@@H](Cc3ccc(C)cc3)Nc3ccccc3)C=CC1O2` (stereo partly shown) [COH000], the SUMOylation inhibition entry is recorded as “more potent SUMOylation inhibitor”.

As to `CC1CC2=C(O1)c1cccc(O)c1C(=O)C2=O` (stereo not shown) [nocardione A], the SUMOylation inhibition result is reported as “potent SUMOylation inhibitors”. With `Cc1cc2c(o1)-c1ccccc1C(=O)C2=O` [33-DINOR-dehydrodunnione], the SUMOylation inhibition entry is “potent SUMOylation inhibitors”. Turning to `O=C(Oc1cc(C(=O)O[C@H]2O[C@@H](OC(=O)c3cc(O)c(O)c(OC(=O)c4cc(O)c(O)c(O)c4)c3)[C@H](OC(=O)c3cc(O)c(O)c(OC(=O)c4cc(O)c(O)c(O)c4)c3)[C@@H](OC(=O)c3cc(O)c(O)c(OC(=O)c4cc(O)c(O)c(O)c4)c3)[C@@H]2OC(=O)c2cc(O)c(O)c(OC(=O)c3cc(O)c(O)c(O)c3)c2)cc(O)c1O)c1cc(O)c(O)c(O)c1` [Davidiin], the SUMOylation inhibition result is reported as “one of the most potent natural product SUMOylation inhibitors identified”.

`COc1ccc(NC(=O)Nc2ccc(Oc3ncnc4cc(Cl)ccc34)nc2)cc1OC1CCCC1` [Compound 10]: the SUMOylation inhibition result was “potent in vitro SUMOylation inhibitor”.

The subject of the next series is SENP. Conditions: cited from earlier work.
For `CS(=O)(=O)n1cc(COc2ccc3[nH]ccc3c2)c2cc(C(=O)OCc3cc(C#N)[nH]c(=O)c3)ccc21` [Compound 53], the SENP inhibition entry is “potent and selective SENP inhibition”. Turning to `CNC(=O)c1cc(CNC(=O)c2ccc3c(c2)c(COc2ccc4[nH]ccc4c2)cn3S(C)(=O)=O)cc(=O)[nH]1` [Compound 54], the SENP inhibition result was “potent and selective SENP inhibition”.

`O=C1C(O)=C(c2ccc(O)cc2)C(=O)C(O)=C1c1ccc(O)cc1` [NSC76919]: the SENP inhibition entry is “exhibited inhibitory activity”. Turning to `Cc1cc(-c2ccc(/N=N/c3c(N)c(S(=O)(=O)O)cc4cc(S(=O)(=O)O)ccc34)c(C)c2)ccc1/N=N/c1c(N)ccc2ccc(S(=O)(=O)O)cc12` [SPI-02], the “inhibition of SUMO2 maturation” value is recorded as “more active at inhibiting SUMO2 maturation”.

As to `COc1ccc(-c2cccc(C(=O)NCc3cccc(NC(=O)CCc4ccccc4)c3)c2)cc1` [Compound 51], the SENP inhibition result was “potent and selective SENP inhibition”. As for `Cc1cc(OCC(=O)Nc2nonc2NC(=O)COc2ccc(Cl)c(C)c2)ccc1Cl` [Compound 47], the SENP inhibition result was “potent and selective SENP inhibition”.

On to `O=CCN1C(=O)C(NC(=O)c2cccc(NC(=O)OCc3ccccc3)c2)N=C(c2ccccc2)c2ccccc21` (stereo not shown) [Compound 39], for which the SENP inhibition result was “potent and selective SENP inhibition”. Regarding `O=C(/C=C/C1C(OC(=O)c2ccc(-c3ccccc3)cc2)CC2OC(=O)CC21)Oc1cccc(Cl)c1` (stereo not shown) [SI2], the SENP inhibition result is “potent and selective SENP inhibition”. With `CC(O)[C@H](NC(=O)[C@H](CCC(N)=O)NC(=O)[C@H](CCC(N)=O)NC(=O)Cc1ccc(O)c([N+](=O)[O-])c1)C(=O)NCC(=O)NCC(=O)COC(=O)c1c2ccccc2cc2ccccc12` (stereo partly shown) [VAE-500] (X1-QQ[Thr(3ξ)]G-X2), the SENP inhibition result was “more potent and selective SENP inhibitors”. `O=C(NCc1cccc(CNC(=O)c2sc3cc(F)ccc3c2Cl)c1)c1sc2cc(F)ccc2c1Cl` [Compound 49]: the SENP inhibition entry is “potent and selective SENP inhibition”.

As for `CC(C)C[C@H](NC(=O)Cc1ccc(O)c([N+](=O)[O-])c1)C(=O)N[C@@H](CCCNC(=N)N)C(=O)NCC(=O)NCC(=O)COC(=O)c1c2ccccc2cc2ccccc12` [VAE-561], the SENP inhibition entry was “more potent and selective SENP inhibitors”. As for `O=C(COC(=O)c1ccc(NC(=O)c2cccc(OCc3ccccc3)c2)cc1)c1ccc(Cl)cc1` [Compound 43], the SENP inhibition result is “modest improvement in activity”. `CCOc1ccc(-c2nonc2NC(=O)COc2ccc(Cl)c(C)c2)cc1C` [Compound 46]: the SENP inhibition entry was “potent and selective SENP inhibition”. As for `O=C(Nc1cccc(NC(=O)c2ccc(-c3cc(Cl)ccc3Cl)o2)c1)c1ccccc1` [Compound 50], the SENP inhibition result is “potent and selective SENP inhibition”. Consider `CC(O)[C@H](NC(=O)[C@H](CCC(N)=O)NC(=O)Cc1ccc(O)c([N+](=O)[O-])c1)C(=O)NCC(=O)NCC(=O)COC(=O)c1c2ccccc2cc2ccccc12` (stereo partly shown) [VAE-499], for which the SENP inhibition result is “more potent and selective SENP inhibitors”. Turning to `CNC(=O)c1cc(COC(=O)c2ccc3c(c2)c(COc2ccc4[nH]ccc4c2)cn3S(C)(=O)=O)cc(=O)[nH]1` [Compound 52], the SENP inhibition result was “potent and selective SENP inhibition”.
